Read-outs that look alike come from different tables or passages of the source.
What was measured:
[1] = test system: U937 cells; assay: High-content imaging skin sensitizing prediction assay: U937 cells treated 24 h with a range of compound concentrations, CD54 intensity per cell and cell number dose response curves qualified, decision matrix applied; conditions: for CD54/Cell Result: qualified dose response curve (increasing/flat/decreasing) of CD54 intensity per cell; for CD54/Cell Result / Cell Number Result: U937 cells, 24 hours compound treatment, range of concentrations; for Cell Number Result: qualified dose response curve (increasing/flat/decreasing) of number of cells; for Outcome: skin sensitivity prediction from decision matrix of FIG. 8 (CD54/cell vs cell number), Toxic* = at concentrations tested
Excerpt: (§1) In step 160, the data corresponding to the different compound concentrations is normalized. In one embodiment, measurements generated from the vehicle-treated cell image analysis can be used. […] As such, a normalization of the data obtained from the compound-treated cells can be determined by subtracting the baseline response of the vehicle-treated cells from the measurements of the responses of the compound-treated cells. Measured values of the compound-treated cells that are below baseline levels can be notated as lacking a response, and can be ignored in further analysis, if desired.
(§2) This can be done by calculating a mean value for the measured target at each concentration level, taking into account all of the samples corresponding to the particular concentration level.
(§3) For example, mean values for gross markers can be computed for the number of cells using either the number of cell bodies or the number of nuclei detected. For specific markers, mean values can be computed for each of the features (e.g., CD54 (ICAM-1) intensity). […] Other mean values can also be used. In addition, other representative values can also be used for each concentration of the compound, such as a highest measured value, a lowest measured value, or other representative values.
(§4) This can be done by plotting on a graph the average value of the target for each concentration. […] Using the plotted points, a simple curve 170 can be generated, as shown. This simple curve represents the dose response curve.
(§5) In one embodiment, qualifying the dose response curve can be accomplished by categorizing the curve as “increasing,” “decreasing,” or “flat.”
(§6) The predefined range can be determined using a standard deviation value, a percentage of total range, or a percentage of highest value. […] In the experimental results, discussed below, the predefined range was determined using a percentage of the highest value for the curve.
(§7) In step 170, a decision matrix is applied to the qualified dose response of one or more of the measured parameters to predict skin sensitization. The qualified dose response of any of the measured cellular targets can be used. For example, the cellular targets used in the decision matrix can be selected from the gross markers, specific markers and/or the functional response of the cells. Using the selected properties, a decision matrix can be constructed based upon the expected behavior of the cell type in response to the compound used. The dose response curve behavior (e.g., “increasing,” “flat,” or “decreasing”) of the measured cellular properties can then be used to determine the prediction of sensitizing capability of the compound. In some embodiments, the decision matrix can also be used to determine if the compound is toxic.
(§8) To determine a predicted skin sensitivity of a tested compound, one simply finds the matrix location corresponding to both of the qualified dose responses determined for the tested compound, and the entry within that matrix location identifies the predicted skin sensitivity of the compound.
(§9) The compounds for which skin sensitivity is desired can then be introduced to the immune effector cells. For each concentration level of each compound, 100 μl of the 2× concentrated compound solution can be added to the corresponding wells. Similarly, 100 μl of vehicle solution can be added to the vehicle control wells and the 2× solution of the negative and positive controls can be added to the negative and positive control wells, respectively. The plate can then be incubated for 24 hours at 37° C. in 5% CO2.
(§10) After incubation, the plate can be centrifuged for 5 minutes at 125×g. The media can then be aspirated from the wells after which 50 μl of pre-warmed (e.g., to 37° C.) 4% paraformaldehyde can be added to each well.

[2] = test system: U937 cells
Excerpt: as §1, §2, §3, §4, §5, §6, §7, §8, §9, §10

| Compound | CD54/Cell Result [1] | Cell Number Result [1] | Outcome [1] | Outcome [2] |
| --- | --- | --- | --- | --- |
| CC(O)C(=O)O (centres unmarked) [Lactic Acid] | Decrease | Decrease | Toxic* |  |
| Nc1ccccc1O [2-aminophenol] | Increase | Increase | Sensitizer |  |
| C[S+](C)[O-] [DMSO] | Decrease | Increase |  | Non-sensitizer |
| O=Cc1ccccc1 [Benzylaldehyde] | Increase | Increase | Sensitizer |  |
| CCO [Ethanol] | Decrease | Increase | Non-sensitizer |  |
| CCCCCCCC/C=C\CCCCCCCC(=O)OCCOCC(OCCO)C1OCC(OCCO)C1OCCO (centres unmarked) [Tween 80] | Decrease | Increase | Non-sensitizer |  |
| Butanol | Flat | Increase |  |  |
| N#CCCC(Br)(C#N)CBr (centres unmarked) [2bromo-2bromomethylglutaronitrile] | Decrease |  | Toxic* |  |
| CCCCCCCC(=O)O [Octanoic Acid] | Increase | Increase | Sensitizer |  |
| CCOC(=O)c1ccccc1C(=O)OCC [Diethyl Phthalate] | Decrease | Decrease | Toxic* |  |
| CCOc1cc(C=O)ccc1O [Ethyl Vanillin] | Decrease | Decrease |  | Toxic* |
| CC(O)CO (centres unmarked) [Propylene Glycol] | Decrease | Flat | Non-sensitizer |  |
| CCCCCCCCCCCCOS(=O)(=O)[O-].[Na+] [Sodium Lauryl Sulfate] | Increase | Increase | Sensitizer |  |
| OCC(O)CO [Glycerol] | Flat |  | Non-sensitizer |  |
| C=CC(=O)OCCO [2hydroxyethylacrylate] | Increase | Increase | Sensitizer |  |
| O=CC=O [Glyoxal] | Increase | Decrease | Sensitizer |  |
| O=C(O)c1ccccc1O [Salicylic Acid] | Decrease | Decrease | Toxic* |  |
| CC(C)=CCC/C(C)=C/CO [Geraniol] | Increase | Increase | Sensitizer |  |
| CC(C)=O [Acetone] | Increase | Decrease | Sensitizer |  |
| CC(C)O [Isopropanol] | Decrease |  | Non-sensitizer |  |
| NCCNc1ccccc1 [Phenylethylenediamine] | Decrease | Increase | Non-sensitizer |  |
| CN(C)C=O [DMF] | Increase | Increase |  | Sensitizer |

Reference: patent US20140194321A1 (CELLOMICS, INC., priority 2013, published 2014)
